For sunitinib L-malate, which “Solubility of sunitinib salts in water at 25° C.” value is on record?
Its value is 2000 µg/mL.

Reference: patent US8686023B2, “Salts of sunitinib” (Lek Pharmaceuticals D.D., priority 2008, dated 2014)
